In PMC8138772 (The Journal of Biological Chemistry, 2021):
“Also recorded” adds a separate entry of the source. Blank lines part the entries; values can stand above or below the compound they belong to. [ ]: non-standard residue; d: D form. The star is where a group is joined. Biotin = O=C1N[C@H]2[C@H](CS[C@H]2CCCCC(=O)*)N1; Cit = NC(=O)NCCC[C@H](N)C(=O)O

Tests used:
normal mouse serum = settings: 37 °C
[1] = target: K562 αvβ6:mCherry cells (αvβ6 integrin) (Homo sapiens, UniProt P06756+P18564); assay type: binding
K562 αvβ6:mCherry cells (αvβ6 integrin), sequence (P06756 31-889 limits assumed): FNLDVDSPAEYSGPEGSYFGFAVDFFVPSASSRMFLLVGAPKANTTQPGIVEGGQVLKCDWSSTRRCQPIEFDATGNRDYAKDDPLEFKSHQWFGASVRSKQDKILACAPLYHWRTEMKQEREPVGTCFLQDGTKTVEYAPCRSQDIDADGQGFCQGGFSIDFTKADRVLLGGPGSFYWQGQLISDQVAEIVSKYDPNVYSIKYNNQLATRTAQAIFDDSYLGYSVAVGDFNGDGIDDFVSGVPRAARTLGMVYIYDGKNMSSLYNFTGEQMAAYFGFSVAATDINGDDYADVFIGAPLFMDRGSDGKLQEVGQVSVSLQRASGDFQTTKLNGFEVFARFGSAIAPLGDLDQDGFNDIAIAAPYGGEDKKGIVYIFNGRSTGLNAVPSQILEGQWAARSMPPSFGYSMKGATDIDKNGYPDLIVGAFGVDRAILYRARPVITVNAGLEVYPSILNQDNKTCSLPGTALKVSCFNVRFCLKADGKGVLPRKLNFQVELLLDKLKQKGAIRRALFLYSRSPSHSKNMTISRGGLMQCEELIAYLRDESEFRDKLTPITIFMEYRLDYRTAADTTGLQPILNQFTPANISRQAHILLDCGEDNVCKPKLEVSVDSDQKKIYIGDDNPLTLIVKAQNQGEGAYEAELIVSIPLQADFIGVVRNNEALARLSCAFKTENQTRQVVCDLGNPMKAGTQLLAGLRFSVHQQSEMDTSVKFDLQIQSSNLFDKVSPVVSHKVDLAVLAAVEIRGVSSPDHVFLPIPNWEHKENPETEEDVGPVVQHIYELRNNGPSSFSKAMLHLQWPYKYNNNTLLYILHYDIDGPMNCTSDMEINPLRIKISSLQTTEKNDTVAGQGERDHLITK
K562 αvβ6:mCherry cells (αvβ6 integrin), sequence (P06756 891-1048 partner limits assumed): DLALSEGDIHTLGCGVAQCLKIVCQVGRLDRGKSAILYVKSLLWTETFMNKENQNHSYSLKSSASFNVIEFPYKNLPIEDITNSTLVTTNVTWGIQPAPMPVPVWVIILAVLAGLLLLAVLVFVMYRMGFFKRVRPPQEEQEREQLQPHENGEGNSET
K562 αvβ6:mCherry cells (αvβ6 integrin), sequence (P18564 22-788 limits assumed): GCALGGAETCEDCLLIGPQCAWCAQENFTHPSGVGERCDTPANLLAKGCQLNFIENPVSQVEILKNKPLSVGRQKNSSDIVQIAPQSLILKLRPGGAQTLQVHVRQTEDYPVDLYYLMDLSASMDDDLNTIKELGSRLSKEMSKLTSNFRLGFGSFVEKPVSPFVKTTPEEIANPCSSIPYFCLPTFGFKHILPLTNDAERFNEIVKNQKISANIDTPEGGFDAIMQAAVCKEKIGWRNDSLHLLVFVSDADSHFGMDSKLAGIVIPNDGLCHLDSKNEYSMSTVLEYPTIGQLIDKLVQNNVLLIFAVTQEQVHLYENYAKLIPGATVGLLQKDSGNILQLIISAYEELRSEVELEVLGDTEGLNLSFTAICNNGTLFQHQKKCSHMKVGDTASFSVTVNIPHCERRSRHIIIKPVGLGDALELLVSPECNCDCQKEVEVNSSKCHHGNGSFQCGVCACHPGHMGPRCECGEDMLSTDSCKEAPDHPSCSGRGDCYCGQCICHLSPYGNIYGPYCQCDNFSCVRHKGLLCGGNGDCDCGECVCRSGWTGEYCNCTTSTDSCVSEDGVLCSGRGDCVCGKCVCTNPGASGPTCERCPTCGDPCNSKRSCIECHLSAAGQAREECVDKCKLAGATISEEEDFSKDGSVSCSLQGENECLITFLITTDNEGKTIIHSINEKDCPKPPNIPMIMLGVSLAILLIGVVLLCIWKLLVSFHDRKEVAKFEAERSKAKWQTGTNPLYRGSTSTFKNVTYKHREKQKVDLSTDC

K562 cells = assay type: binding
in vitro = settings: mouse, serum
[2] = mouse

- cleaved bond (normal mouse serum; up to 6 h): C18-arginine19
Compound: Biotin-CAVPNLRGDLQVLAQKVCRTK-NH2 (cysteine pairing not given here)

Compound: CC(C)C[C@@H]1NC(=O)[C@H](CC(=O)O)NC(=O)CNC(=O)[C@H](CCCNC(=N)N)NC(=O)[C@H](CC(C)C)NC(=O)[C@H](CC(N)=O)NC(=O)[C@@H]2CCCN2C(=O)[C@H](C(C)C)NC(=O)[C@H](C)NC(=O)[C@@H](NC(=O)CCCC[C@@H]2SC[C@@H]3NC(=O)N[C@@H]32)CSc2c(F)c(F)c(c(F)c2F)-c2c(F)c(F)c(c(F)c2F)SC[C@@H](C(=O)N[C@@H](CCCNC(=N)N)C(=O)N[C@H](C(=O)N[C@@H](CCCCN)C(N)=O)[C@@H](C)O)NC(=O)[C@H](C(C)C)NC(=O)[C@H](CCCCN)NC(=O)[C@H](CCC(N)=O)NC(=O)[C@H](C)NC(=O)[C@H](CC(C)C)NC(=O)[C@H](C(C)C)NC(=O)[C@H](CCC(N)=O)NC1=O [C1C18 DFBP]
- binding to K562 αvβ6:mCherry cells (in words) [1]: high affinity and specificity comparable to the original A20FMDV2 peptide

- fragment found (normal mouse serum; up to 24 h): 719: unidentified, 4 h
Compound: Biotin-CADVPNLRGDLQVLADQKVCRDTKDAD-NH2 (cysteine pairing not given here)
- cleaved bond (normal mouse serum; up to 24 h): KD21-AD22, 24 h; also recorded: L6-Arg7, major

Compound: CC(C)C[C@@H]1NC(=O)[C@H](CC(=O)O)NC(=O)CNC(=O)[C@H](CCCNC(=N)N)NC(=O)[C@H](CC(C)C)NC(=O)[C@H](CC(N)=O)NC(=O)[C@@H]2CCCN2C(=O)[C@H](C(C)C)NC(=O)[C@@H](NC(=O)[C@H](CC(N)=O)NC(=O)CCCC[C@@H]2SC[C@@H]3NC(=O)N[C@@H]32)CSc2c(F)c(F)c(c(F)c2F)-c2c(F)c(F)c(c(F)c2F)SC[C@@H](C(=O)N[C@@H](CCCNC(=N)N)C(=O)N[C@H](C(=O)N[C@@H](CCCCN)C(N)=O)[C@@H](C)O)NC(=O)[C@H](C(C)C)NC(=O)[C@H](CCCCN)NC(=O)[C@H](CCC(N)=O)NC(=O)[C@H](C)NC(=O)[C@H](CC(C)C)NC(=O)[C@H](C(C)C)NC(=O)[C@H](CCC(N)=O)NC1=O [C2C18 DFBP]
- binding to K562 αvβ6:mCherry cells (in words) [1]: high affinity and specificity comparable to the original A20FMDV2 peptide

- cleaved bond (normal mouse serum; up to 6 h): C18-arginine19, 2 h
Compound: Biotin-CAVPNLRGDLQVLAQKVCRTK-NH2 (cysteine pairing not given here) [C1C18 DFBP]

Compound: CC(C)C[C@@H]1NC(=O)[C@H](CC(=O)O)NC(=O)CNC(=O)[C@H](CCCNC(=N)N)NC(=O)[C@H](CC(C)C)NC(=O)[C@H](CC(N)=O)NC(=O)[C@@H]2CCCN2C(=O)[C@H](C(C)C)NC(=O)[C@H](C)NC(=O)[C@@H](NC(=O)CCCC[C@@H]2SC[C@@H]3NC(=O)N[C@@H]32)CSc2c(F)c(F)c(c(F)c2F)-c2c(F)c(F)c(c(F)c2F)SC[C@@H](C(=O)N[C@H](C(=O)N[C@@H](CCCCN)C(N)=O)[C@@H](C)O)NC(=O)[C@H](C)NC(=O)[C@H](C(C)C)NC(=O)[C@H](CCCCN)NC(=O)[C@H](CCC(N)=O)NC(=O)[C@H](C)NC(=O)[C@H](CC(C)C)NC(=O)[C@H](C(C)C)NC(=O)[C@H](CCC(N)=O)NC1=O [C1C19 DFBP]
- binding to parental K562 cells (in words) (K562 cells): significantly bound to parental K562 cells at high concentrations

Compound: CC(C)C[C@@H]1NC(=O)[C@H](CC(=O)O)NC(=O)CNC(=O)[C@H](CCCNC(=N)N)NC(=O)[C@H](CC(C)C)NC(=O)[C@H](CC(N)=O)NC(=O)[C@@H]2CCCN2C(=O)[C@H](C(C)C)NC(=O)[C@H](C)NC(=O)[C@@H](NC(=O)CCCC[C@@H]2SC[C@@H]3NC(=O)N[C@@H]32)CSc2c(F)c(F)c(c(F)c2F)-c2c(F)c(F)c(c(F)c2F)SC[C@@H](C(=O)N[C@@H](CCCCN)C(N)=O)NC(=O)[C@H](CCCNC(=N)N)NC(=O)[C@H](C)NC(=O)[C@H](C(C)C)NC(=O)[C@H](CCCCN)NC(=O)[C@H](CCC(N)=O)NC(=O)[C@H](C)NC(=O)[C@H](CC(C)C)NC(=O)[C@H](C(C)C)NC(=O)[C@H](CCC(N)=O)NC1=O [C1C20 DFBP]
- binding to K562 αvβ6:mCherry cells (in words) [1]: high affinity and specificity comparable to the original A20FMDV2 peptide

Compound: CC(C)C[C@@H]1NC(=O)[C@H](CC(=O)O)NC(=O)CNC(=O)[C@H](CCCNC(=N)N)NC(=O)[C@H](CC(C)C)NC(=O)[C@H](CC(N)=O)NC(=O)[C@@H]2CCCN2C(=O)[C@H](C(C)C)NC(=O)[C@@H](NC(=O)[C@H](CC(N)=O)NC(=O)CCCC[C@@H]2SC[C@@H]3NC(=O)N[C@@H]32)CSc2c(F)c(F)c(c(F)c2F)-c2c(F)c(F)c(c(F)c2F)SC[C@@H](C(=O)N[C@@H](CCCNC(N)=O)C(=O)N[C@H](C(=O)N[C@@H](CCCCN)C(=O)N[C@H](C)C(N)=O)[C@@H](C)O)NC(=O)[C@H](C(C)C)NC(=O)[C@H](CCCCN)NC(=O)[C@H](CCC(N)=O)NC(=O)[C@H](C)NC(=O)[C@H](CC(C)C)NC(=O)[C@H](C(C)C)NC(=O)[C@H](CCC(N)=O)NC1=O [C2C18 CitTKAD DFBP]
- half-life (in vitro): 4.96 h

- cleaved bond (normal mouse serum; up to 24 h): Asn1-C2, 24 h
Compound: biotin-NCVPhNLRGDLQVLAQKVCRDTKAD-amide

- cleaved bond (normal mouse serum; up to 24 h): Thr20-K21, 12 h
Compound: Biotin-NCVPNLRGDLQVLAQKVC[Cit]TKAD-NH2 (cysteine pairing not given here)

- cleaved bond (normal mouse serum; up to 6 h): C18-arginine19, 2 h
Compound: Biotin-NCVPNLRGDLQVLAQKVCRTK-NH2 (cysteine pairing not given here)

Compound: Biotin-NCVPNLRGDLQVLAQKVCRDTKAD-NH2 (cysteine pairing not given here)
- cleaved bond (normal mouse serum; up to 24 h): L6-Arg7, major, 8 h; also recorded: Arg7-G8, major, 8 h; also recorded: Asn1-C2, 24 h

Compound: CC(C)C[C@@H]1NC(=O)[C@H](CC(=O)O)NC(=O)CNC(=O)[C@H](CCCNC(=N)N)NC(=O)[C@H](CC(C)C)NC(=O)[C@H](CC(N)=O)NC(=O)[C@@H]2CCCN2C(=O)[C@H](C(C)C)NC(=O)[C@@H](NC(=O)[C@H](CC(N)=O)NC(=O)CCCC[C@@H]2SC[C@@H]3NC(=O)N[C@@H]32)CSc2c(F)c(F)c(c(F)c2F)-c2c(F)c(F)c(c(F)c2F)SC[C@@H](C(=O)N[C@H](C(=O)N[C@@H](CCCCN)C(N)=O)[C@@H](C)O)NC(=O)[C@H](C)NC(=O)[C@H](C(C)C)NC(=O)[C@H](CCCCN)NC(=O)[C@H](CCC(N)=O)NC(=O)[C@H](C)NC(=O)[C@H](CC(C)C)NC(=O)[C@H](C(C)C)NC(=O)[C@H](CCC(N)=O)NC1=O [C2C19 DFBP]
- binding to parental K562 cells (in words) (K562 cells): significantly bound to parental K562 cells at high concentrations

Compound: CC(C)C[C@@H]1NC(=O)[C@H](CC(=O)O)NC(=O)CNC(=O)[C@H](CCCNC(=N)N)NC(=O)[C@H](CC(C)C)NC(=O)[C@H](CC(N)=O)NC(=O)[C@@H]2CCCN2C(=O)[C@H](C(C)C)NC(=O)[C@@H](NC(=O)[C@H](CC(N)=O)NC(=O)CCCC[C@@H]2SC[C@@H]3NC(=O)N[C@@H]32)CSc2c(F)c(F)c(c(F)c2F)-c2c(F)c(F)c(c(F)c2F)SC[C@@H](C(=O)N[C@H](CCCNC(=N)N)C(=O)N[C@H](C(=O)N[C@@H](CCCCN)C(=O)N[C@H](C)C(N)=O)[C@@H](C)O)NC(=O)[C@H](C(C)C)NC(=O)[C@H](CCCCN)NC(=O)[C@H](CCC(N)=O)NC(=O)[C@H](C)NC(=O)[C@H](CC(C)C)NC(=O)[C@H](C(C)C)NC(=O)[C@H](CCC(N)=O)NC1=O [C2C18 RDTKAD DFBP]
- reduced binding fluorescence (maximal signal versus A20FMDV2, Fig. 3B) [1]: ~60%
- t1/2 of intact peptide in serum [2]: 4.518 h
